The record followed here is patent US20110269811A1, “INHIBITORS OF SEMICARBAZIDE-SENSITIVE AMINE OXIDASE (SSAO) AND VAP-1 MEDIATED ADHESION USEFUL FOR TREATMENT AND PREVENTION OF DISEASES” (priority 2006, published 2011).

The target in data set [1] is T1, Recombinant human MAO-A (Homo sapiens, UniProt P21397).
T1 construct: purchased BD Biosciences (MA, USA)
T1 sequence (P21397 1-527): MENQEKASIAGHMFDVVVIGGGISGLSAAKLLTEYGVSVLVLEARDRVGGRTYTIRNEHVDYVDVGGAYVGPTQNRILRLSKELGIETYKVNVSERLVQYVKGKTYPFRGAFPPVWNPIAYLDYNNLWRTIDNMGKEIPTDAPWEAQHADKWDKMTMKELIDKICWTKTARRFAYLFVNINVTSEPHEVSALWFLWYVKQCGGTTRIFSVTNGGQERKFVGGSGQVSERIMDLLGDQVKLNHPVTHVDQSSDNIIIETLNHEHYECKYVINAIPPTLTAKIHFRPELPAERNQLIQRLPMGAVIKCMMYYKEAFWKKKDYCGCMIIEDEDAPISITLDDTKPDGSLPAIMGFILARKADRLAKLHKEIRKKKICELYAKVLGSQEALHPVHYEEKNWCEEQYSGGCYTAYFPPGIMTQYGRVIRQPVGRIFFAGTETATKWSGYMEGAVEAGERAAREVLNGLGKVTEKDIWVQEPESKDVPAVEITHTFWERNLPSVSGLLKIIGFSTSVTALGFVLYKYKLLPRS
The experiment in a line: MAO-A activity, colorimetric method, tyramine substrate. The data set is classed as biochemical. The note with it: for Specificity of SSAO on MAO-A: ratio of IC50 for MAO-A to IC50 for SSAO; for IC50: recombinant human MAO-A. The procedure: The specificities of the different SSAO inhibitors was tested by determining their abilities to inhibit MAO-A and MAO-B activities in vitro. Recombinant human MAO-A and human MAO-B enzymes were obtained from BD Biosciences (MA, USA). MAO activity was measured using the colorimetric method essentially as described (Holt, A. et al. (1997) Anal. Biochem. 244: 384). A pre-determined amount of inhibitor diluted in 0.2M potassium phosphate buffer, pH 7.6, was added to each well, if required. The amount of inhibitor varied in each assay but was generally at a final concentration of between 1 nM and 1 mM. Controls lacked inhibitor. The following agents were then added to a final reaction volume of 200 μL in 0.2M potassium phosphate buffer, pH 7.6: 0.04 mg/ml of MAO-A or 0.07 mg/ml MAO-B enzyme, 15 μL of 10 mM tyramine substrate (for MAO-A), or 15 μL 100 mM benzylamine substrate (for MAO-B), and 50 μL of freshly made chromogenic solution. The chromogenic solution contained 750 μM vanillic acid (Sigma#V-2250), 400 μM 4-aminoantipyrine (Sigma #A-4328) and 12 U/mL horseradish peroxidase (Sigma #P-8250) in order to cause a change of 0.5 OD A490 nm/h. This was within the linear response range for the assay. The plates were incubated for 60 min at 37° C. The increase in absorbance, reflecting MAO activity, was measured at 490 nm using microplate spectrophotometer (Power Wave 40, Bio-Tek Inst.). Inhibition was presented as percent inhibition compared to control after correcting for background absorbance and IC50 values calculated using GraphPad Prism software. Clorgyline and pargyline (inhibitors of MAO-A and -B, respectively) at 1 μM, were added to some wells as positive controls for MAO inhibition. […] The compounds described in the present invention are therefore expected to have therapeutic utility in the treatment of diseases and conditions in which the activity of SSAO/VAP-1 plays a role, that is, in SSAO/VAP-1 mediated diseases and conditions.

Data set [2] deals with T2, Human SSAO (Homo sapiens, UniProt Q16853).
T2 construct: rat lung or human umbilical cord homogenates were prepared by chopping the freshly removed tissue; from tissue; host or cells: human umbilical cord homogenate (25,000 g supernatant)
T2 sequence (Q16853 1-763): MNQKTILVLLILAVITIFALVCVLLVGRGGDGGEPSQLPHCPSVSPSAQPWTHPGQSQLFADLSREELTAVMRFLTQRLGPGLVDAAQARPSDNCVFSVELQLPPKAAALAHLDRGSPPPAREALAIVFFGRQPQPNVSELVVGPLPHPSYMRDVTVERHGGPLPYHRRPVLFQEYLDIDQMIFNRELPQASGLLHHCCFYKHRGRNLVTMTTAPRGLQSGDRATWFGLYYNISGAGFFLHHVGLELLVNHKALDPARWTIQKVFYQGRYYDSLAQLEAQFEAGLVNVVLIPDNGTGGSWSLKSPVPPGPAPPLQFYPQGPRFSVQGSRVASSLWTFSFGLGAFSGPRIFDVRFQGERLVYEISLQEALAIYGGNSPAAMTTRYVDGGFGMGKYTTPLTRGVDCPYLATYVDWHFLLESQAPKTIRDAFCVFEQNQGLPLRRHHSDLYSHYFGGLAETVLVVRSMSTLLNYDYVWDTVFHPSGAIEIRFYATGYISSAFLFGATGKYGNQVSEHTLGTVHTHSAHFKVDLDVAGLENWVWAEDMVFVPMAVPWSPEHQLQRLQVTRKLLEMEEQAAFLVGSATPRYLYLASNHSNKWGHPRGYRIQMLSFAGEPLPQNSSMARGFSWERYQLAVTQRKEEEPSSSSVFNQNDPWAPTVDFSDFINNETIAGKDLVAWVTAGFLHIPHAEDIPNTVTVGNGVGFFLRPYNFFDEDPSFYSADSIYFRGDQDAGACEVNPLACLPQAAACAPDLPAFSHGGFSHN
In words: In vitro inhibition of SSAO activity, human umbilical cord homogenate, 14C-benzylamine. Type of data set: biochemical. The procedure:
SSAO activity was measured as described (Lizcano J M. Et al. (1998) Biochem J. 331:69). Briefly, rat lung or human umbilical cord homogenates were prepared by chopping the freshly removed tissue into small pieces and washing them thoroughly in PBS. The tissue was then homogenized 1:10 (w/v) for lung or 1:5 (w/v) for umbilical cord, in 10 mM potassium phosphate buffer (pH 7.8). Homogenates were then centrifuged at 1000 g at 4° C. for 10 min (lung) or 25,000 g for 30 min (umbilical cord); the supernatants were kept frozen until ready to use. Lung or umbilical cord homogenate was preincubated with clorgyline and pargyline at 1 μM to inhibit MAO-A and -B activity, respectively, and SSAO inhibitors were generally present at 1 nM-10 μM. The reaction was initiated by addition of 20 μM ^14C— benzylamine as substrate. The reaction was carried out at 37° C. in a final volume of 400 μL of 100 mM potassium phosphate buffer (pH 7.2) and stopped with 100 μl of 2M citric acid. Radioactively labeled products were extracted into toluene/ethyl acetate (1:1, v/v) containing 0.6% (w/v) 2,5-diphenyloxazole (PPO) before liquid scintillation counting.

The mark [3] stands for this setting: human umbilical cord homogenate, read-out: Human SSAO IC50.

Structures can show the parent of a compound that is named as a salt. Where two headings read alike, the source gives them in different places.

Consider `COc1ccc(C/C(=C/F)CN)cc1.Cl` [Compound I-1-Z, (Z)-3-Fluoro-2-(4-methoxybenzyl)-allylamine hydrochloride], for which, in data set [1], the “Specificity of SSAO on MAO-A” value stood at 4700 and the IC50 stood at 85 µM. In data set [2] (as restated in Example 46, read-out: IC50 for human SSAO), the IC50 came out at 0.018 µM.

On to `CCOc1ccc(C/C(=C\F)CN)cc1.Cl` [Compound I-2-E, (E)-3-Fluoro-2-(4-ethoxybenzyl)-allylamine hydrochloride], for which the melting point is 167 to 168 °C. For the same molecule, in data set [1], the “Specificity of SSAO on MAO-A” value was determined as 9400 and the IC50 came to 85 µM. For the same molecule, the half-maximal inhibitory concentration (IC50) in data set [2] (setting [3]) is 0.009 µM.

Molecule `CCOc1ccc(C/C(=C/F)CN)cc1.Cl` [Compound I-2-Z, (Z)-3-Fluoro-2-(4-ethoxybenzyl)-allylamine hydrochloride] had a melting point of 153 to 154 °C. In data set [1], the “Specificity of SSAO on MAO-A” value worked out at 7900 and the IC50 was determined as 79 µM. Besides, in data set [2] (setting [3]), the IC50 stood at 0.01 µM.

In the case of `Cl.NC/C(=C\F)Cc1ccc(Cl)cc1` [Compound I-3-Z, (Z)-2-(4-Chlorobenzyl)-3-fluoro-allylamine hydrochloride], the melting point lay in the range of 145 to 146 °C. In data set [1], the “Specificity of SSAO on MAO-A” value is 3250 and the IC50 worked out at 91 µM. Besides, in data set [2] (setting [3]), the IC50 stood at 0.028 µM.

The molecule `COc1cccc(C/C(=C/F)CN)c1.Cl` [Compound I-5-Z, (Z)-3-Fluoro-2-(3-methoxybenzyl)allylamine hydrochloride] came in with a melting point of 119 to 120.5 °C. Moreover, in data set [1], the “Specificity of SSAO on MAO-A” value came to 2643 and the IC50 was determined as 74 µM. The IC50 in data set [2] (setting [3]) is 0.028 µM.

Regarding `CC(C)Oc1ccc(C/C(=C\F)CN)cc1` [Compound I-8-E, (E)-3-Fluoro-2-(4-isopropoxybenzyl)allylamine hydrochloride], in data set [1], the “Specificity of SSAO on MAO-A” value is recorded as 4211 and the IC50 came out at 48 µM. The IC50 in data set [2] (setting [3]) came out at 0.0114 µM.

`CC(C)Oc1ccc(C/C(=C/F)CN)cc1.Cl` [Compound I-8-Z, (Z)-3-Fluoro-2-(4-isopropoxybenzyl)allylamine hydrochloride] returned a melting point of 147 to 148 °C. Also, in data set [1], the “Specificity of SSAO on MAO-A” value worked out at 7000 and the half-inhibitory concentration (IC50) came to 35 µM. The IC50 in data set [2] (setting [3]) was found to be 0.005 µM.

In the case of `CSc1ccc(C/C(=C/F)CN)cc1.Cl` [Compound I-9-Z, (Z)-3-Fluoro-2-(4-methylthiobenzyl)allylamine hydrochloride], the melting point lay within 144 to 146 °C. In data set [1], the “Specificity of SSAO on MAO-A” value is given as 8385 and the IC50 was 109 µM. The IC50 in data set [2] (setting [3]) was 0.012 µM.

In the case of `CC(C)c1ccc(C/C(=C\F)CN)cc1.Cl` [Compound I-14-E, (E)-3-Fluoro-2-(4-isopropylbenzyl)allylamine hydrochloride], the melting point lay in the range of 175 to 176 °C. Also, in data set [1], the “Specificity of SSAO on MAO-A” value turned out to be 5923 and the IC50 turned out to be 77 µM. In data set [2] (setting [3]), the IC50 was determined as 0.013 µM.

`CC(C)c1ccc(C/C(=C/F)CN)cc1.Cl` [Compound I-14-Z, (Z)-3-Fluoro-2-(4-isopropylbenzyl)allylamine hydrochloride] yielded a melting point of 175 to 176 °C. In addition, in data set [1], the “Specificity of SSAO on MAO-A” value is 11250 and the IC50 was determined as 90 µM. Also, in data set [2] (setting [3]), the IC50 came to 0.008 µM.

Molecule `CC(C)(C)c1ccc(C/C(=C/F)CN)cc1.Cl` [Compound I-15-Z, (Z)-3-Fluoro-2-(4-tert-butylbenzyl)allylamine hydrochloride] came in with a melting point of 155 to 156 °C. Besides, in data set [1], the “Specificity of SSAO on MAO-A” value amounted to 17000 and the concentration for half-maximal inhibition (IC50) is 119 µM. Moreover, the IC50 in data set [2] (setting [3]) amounted to 0.007 µM.

`Cl.NC/C(=C\F)Cc1cccc(F)c1` [Compound I-19-Z, (Z)-3-Fluoro-2-(3-fluorobenzyl)allylamine hydrochloride] came in with a melting point of 120.5 to 121.5 °C. In addition, in data set [1], the “Specificity of SSAO on MAO-A” value is recorded as 1360 and the IC50 worked out at 34 µM. The IC50 in data set [2] (setting [3]) was determined as 0.025 µM.

Molecule `NC/C(=C\Cl)CCc1cc(F)cc(C(F)(F)F)c1.O=C(O)C(F)(F)F` [Compound I-40-Z, (Z)-3-Chloro-2-(3-fluoro-5-trifluoromethylphenylethyl)allylamine trifluoroacetate] had a melting point of 51 to 52 °C. For the same molecule, in data set [1], the “Specificity of SSAO on MAO-A” value was 687 and the IC50 came out at 632 µM. For the same molecule, in data set [2] (setting [3]), the half-maximal inhibitory concentration (IC50) was determined as 0.92 µM.

For the molecule `NC/C(=C\F)CCc1ccc(F)cc1` [Compound I-99-Z, (Z)-2-(fluoromethylene)-4-(4-fluorophenyl)butan-1-amine], the “Specificity of SSAO on MAO-A” value in data set [1] was found to be 177. Also, the IC50 was 23 µM in data set [1] and 0.13 µM in data set [2] (setting [3]).

As for `NC/C(F)=C\Cc1cc(F)cc(C(F)(F)F)c1` [II-1-E, (E)-2-Fluoro-4-(3-fluoro-5-trifluoromethylphenyl)-but-2-enylamine], in data set [1], the “Specificity of SSAO on MAO-A” value is over 2400 and the IC50 is over 87 µM. In data set [2] (setting [3]), the IC50 amounted to 0.036 µM.

For the molecule `CN(C)c1cccc(C/C=C(/F)CN)c1.Cl` [II-11-E, (E)-2-Fluoro-4-(3-dimethylaminophenyl)-2-butenylamine hydrochloride], the “Specificity of SSAO on MAO-A” value in data set [1] is on record as 2600. The IC50 in data set [1] worked out at 286 µM; in data set [2] (setting [3]) it was 0.11 µM.

`COc1cccc(C/C(C)=C(/F)CN)c1` [II-18-E, hydrochloride]: in data set [1], the “Specificity of SSAO on MAO-A” value is over 3448 and the IC50 is over 1000 µM. The IC50 in data set [2] (setting [3]) amounted to 0.29 µM.

Take `COc1cccc(OC/C=C(/F)CN)c1` [II-19-E, (E)-2-fluoro-4-(3-methoxyphenoxy)but-2-en-1-amine]: in data set [1], the “Specificity of SSAO on MAO-A” value is recorded as over 6250 and the IC50 was over 1000 µM. Moreover, the 50% inhibitory concentration (IC50) in data set [2] (setting [3]) turned out to be 0.16 µM.

By IC50 is commonly meant the concentration needed to halve the response being measured. By melting point is commonly meant the temperature, or range, at which the solid turns liquid.
